Reference: patent US20100234454A1 (priority 2006, published 2010)

Legend:
rats [1] = test: Flinches in rats after intraplantar injection of capsaicin; format: in vivo, rat
rats [2] = conditions: rat, in vivo

| Compound | number of flinches (mean) after intraplantar capsaicin following BCTC conditioning (rats [1]; 40 mg/kg BCTC s.c. one hour before capsaicin, 4 minutes, p<0.05, n=6) | reduction of induced pain effect (rats [2]) | dose needed to decrease half of the number of flinches induced by the venom (rats [2]; sc) | dose of maximal analgesic effect (rats [2]; sc) | number of flinches (mean) after intraplantar capsaicin alone (rats [1]; 10 μg capsaicin intraplantar, 4 minutes observation, n=6) |
| --- | --- | --- | --- | --- | --- |
| CC(C)(C)c1ccc(NC(=O)N2CCN(c3ncccc3Cl)CC2)cc1 [BCTC, N-(4-Tertiarybutylphenyl)-4-(3-cholorphyridin-2-yl)tetrahydropyrazine-1(2H)-carbox-amide] | 4.2 | 79% | 10 to 40 mg/kg | 40 mg/kg | – |
| COc1cc(CNC(=O)CCCC/C=C/C(C)C)ccc1O [capsaicin] | – | – | – | – | 76.0 |
